Key:
[1] = test system: dermal primary human fibroblasts (dPHFs); test: Western blot of fibronectin, collagen-1 and PAI-1 in dermal primary human fibroblasts; type: cell-based; conditions: for extracellular levels of fibronectin, collagen-1, and PAI-1 (ECM proteins): Etomoxir 10 uM, BAY-876 40 nM, FIG. 2A; for effect on intracellular levels of fibronectin and collagen-1 / effect on downregulation of extracellular fibronectin and collagen-1 by caffeic acid: caffeic acid (40 uM) treated dPHFs; for effect on downregulation of extracellular fibronectin and collagen-1 by caffeic acid: in a dose dependent manner
[2] = test system: SMAD3; test: SMAD3 luciferase reporter in dPHFs; type: cell-based, human; conditions: for SMAD3 dependent transcription: in response to TGF-B1, caffeic acid 40 uM, WZB-117 10 uM, 2-DG 2 mM
Experimental: SMAD3 luciferase reporter was constructed as previously described^26. Oligos containing SMAD3 binding sites were designed with BamH1 and Sal1 digestion sites. Forward: 5′-[…]-3′, reverse: 5′-[…]-3′. SMAD oligoes were inserted into a p-delta-51 LUC II reporter. dPHFs were electroporated with construct using an Amaxa mouse neural stem cell nucleofactor kit (Lonza). 24 hours after electroporation, cells were treated as above (cell culture) for 24 hours and lysed to assess for luciferase and renilla activity. Relative luciferase activity was defined as the level of luciferase bioluminescence divided by renilla bioluminescence for each sample.

[3] = test system: radiation-induced skin fibrosis; test: Murine radiation-induced skin fibrosis model; type: in vivo, mice
Description: All animal procedures were approved by Animal Care Committee at the University Health Network under AUP 3422. A murine skin fibrosis model was created by radiating the hindlimb of C3H/HeJ mice (Jackson Laboratory) or B6.12951-Cd36^tm1Mfe/J mice (Jackson Laboratory) using an XRAD 225Cx (Precision X-Ray) and a 2.5 cm collimator. Prior to irradiation, fluoroscopic imaging was used to confirm and standardize the irradiation site. 40 Gy for C3H mice or 30 Gy for B6 mice was divided equally on the dorsal and ventral side of the leg. Animals were randomized into groups for treatment by a researcher blinded to treatment assignment. For CD36^high cell treatment, 1×10^6 cells in 100 ul PBS were injected into the hindlimb subdermally at 3 sites weekly for 3 weeks starting at 4 weeks post-irradiation. For caffeic acid phenethyl ester treatment, 10 mg/kg was given by intraperitoneal injection by a researcher blinded to treatment. Caffeic acid phenethyl ester or vehicle control was given 3× per week for 10 weeks starting at 1 week post-irradiation. Leg contracture measurement was performed, as previously published^21, after first sedating mice with inhalation anesthesia and ensuring deep sedation through no pain reflex and no muscle tone. Then mice hips were fixed on a custom apparatus. 0.1N equivalent weight was then used to extend the fibrotic and contralateral normal leg and leg extension was measured using a standardized ruler by two assessors blinded to treatment groups. Percentage leg contracture was calculated as 1−leg extension of fibrotic leg/leg extension of contralateral normal leg. Leg contracture was measured biweekly and averaged for the week.
Formalin-fixed, paraffin-embedded 8 um sections treated with Masson's Trichrome Stain were whole slide scanned using Aperio ScanScope XT. Analysis was performed by a researched blinded to treatment. Using ImageJ, whole slide scanned images were loaded using the […] plugin, and then stacked to RGB. Colour deconvolution was used to separate the full-colour images into their red, green and blue components. A threshold of pixel intensity was optimized and set and standardized for all images. A ratio of blue (trichrome) to red (nuclear) pixel density was derived for each image, representing collagen to cell ratio.

[4] = test system: dermal primary human fibroblasts (dPHFs); test: qRT-PCR gene expression profiling in dPHFs; type: cell-based; conditions: caffeic acid 40 uM
Experimental: dPHFs obtained from ATCC (PCS-201-012) were cultured in DMEM with 5% FBS. Mesenchymal cells were isolated primarily from C3H or B6 mice. Animals were euthanized and intraperitoneal fat or skin was dissected and minced. Collagenase and hyaluronidase (Stem cell technologies) digestion was performed in a rotating oven at 37 C for 1 hour, passed through a 70 uM filter, and then plated in DMEM+10% FSB to expand the mesenchymal population. Cells were starved for 12 hours in MEM media prior to treatment with TGF-B1 (Sigma), caffeic acid (Sigma), dichloroacetic acid (Sigma), PDGF-BB (R&D Systems), and/or etomoxir (Tocris). All protein and mRNA profiling was performed at 24 hours post-treatment except for PDGF-BB, which was performed at 48 hours post-treatment.
For human and murine skin samples, skin samples were macrodissected and snap frozen in liquid nitrogen and stored at −80° C. For in vitro experiments, cells were trypsinized and either snap frozen in liquid nitrogen or immediately underwent RNA extraction. All RNA was extracted using the RNeasy Mini Kit (Qiagen) according to manufacturer instructions. RNA quality was measured and quantified using either the NanoDrop 2000c Spectrophotometer (Thermo Scientific); we used either A260/280 for cell samples, or RIN for human and murine samples using a 2100 bioanalyzer (Aligent). cDNA was synthesized from normalized amounts of RNA using random hexamer primers and SuperScript III (Invitrogen) on a PTC-200 Peltier Thermal Cycler. Primers were obtained from peer-reviewed publications whenever possible. See Table S1 for references and amplicon size. Primers were validated through BLASTing to ensure specificity, size confirmation by gel electrophoresis at first time use, and by melting curve assessment for all reactions. PCR efficiency was measured using a standard curve through the dilution of a representative sample to determine the linear range of cDNA amounts for qRT-PCR reactions. qRT-PCR reactions were performed on 384-well plates (Applied Biosystems) using SYBR Green PCR Master Mix (Applied Biosystems). The analysis was run on the 7900HT Fast Real-Time PCR System (Applied Biosystems). Reaction conditions for cDNA synthesis and qRT-PCR are found in supplementary data Table S2 and S3 respectively. A no template control was used to monitor contamination and false positive results from primer-dimers. Results of no template controls were confirmed to have higher CT-values and distinct melting curves compared to template reactions. 18S ribosomal RNA was used as an internal control. A 2^−ΔΔCT method was used for relative quantification and for graphical representation in figures. Statistical analysis was performed on biological replicates using Relative Expression Software Tool (REST)^24 set to default parameters.

[5] = test system: dermal primary human fibroblasts (dPHFs); test: FAO and glycolysis functional assessment (Seahorse) in dPHFs; type: cell-based; conditions: TGF-B1 stimulated dPHFs
Experimental: FAO and Glycolysis Functional Assessment for dPHFs • Seahorse experiments were performed on an XFe96 analyzer (Aligent) based on manufacturer's instructions. dPHFs were prepared as per above (cell culture) on an XF96 culture plate. For glycolysis profiling, final concentration of glucose (1 mM or 10 mM), oligomycin (1 uM), and 2-DG (100 mM) was utilized. For FAO, palmitate sodium (Sigma) and BSA-fatty acid free (Sigma) were used to make palmitate-BSA (0.17 mM) as per manufacturer's instructions. Etomoxir (Tocris) 40 uM final concentration was used.

[6] = test system: dermal primary human fibroblasts (dPHFs); test: Lysosome quantification (LysoTracker) and TFEB expression in dPHFs; type: cell-based; conditions: TGF-B1 3 ng/ml; caffeic acid 40 uM
Experimental: dPHFs were treated as per above (cell culture) and exposed to LysoTracker (ThermoFisher) as per manufacturer's instructions on a 4 chamber cover glass system (ThermoFisher). Images were obtained using an Olympus Fluoview laser-scanning confocal microscope. Fluorescence intensity was quantitated per cell using the Object Identification module and Measurement function of Volocity software. Cell area was measured using ImageJ software.

[7] = test system: dermal primary human fibroblasts (dPHFs); test: DQ-collagen-1 / lysotracker co-localization in dPHFs; type: cell-based; conditions: TGF-B1 3 ng/ml; caffeic acid 40 uM
[8] = test system: CD36; test: CD36 gene (qRT-PCR) and surface (flow cytometry) expression in dPHFs; type: cell-based, human
Experimental: For human and murine skin samples, skin samples were macrodissected and snap frozen in liquid nitrogen and stored at −80° C. For in vitro experiments, cells were trypsinized and either snap frozen in liquid nitrogen or immediately underwent RNA extraction. All RNA was extracted using the RNeasy Mini Kit (Qiagen) according to manufacturer instructions. RNA quality was measured and quantified using either the NanoDrop 2000c Spectrophotometer (Thermo Scientific); we used either A260/280 for cell samples, or RIN for human and murine samples using a 2100 bioanalyzer (Aligent). cDNA was synthesized from normalized amounts of RNA using random hexamer primers and SuperScript III (Invitrogen) on a PTC-200 Peltier Thermal Cycler. Primers were obtained from peer-reviewed publications whenever possible. See Table S1 for references and amplicon size. […] PCR efficiency was measured using a standard curve through the dilution of a representative sample to determine the linear range of cDNA amounts for qRT-PCR reactions. qRT-PCR reactions were performed on 384-well plates (Applied Biosystems) using SYBR Green PCR Master Mix (Applied Biosystems). […] A 2^−ΔΔCT method was used for relative quantification and for graphical representation in figures. […]

[9] = mice with skin fibrosis, CAPE IP 10 mg/Kg 3 times per week for 10 weeks
[10] = TGF-B1 treated dPHFs, caffeic acid 40 uM

## O=CC[C@@H](O)[C@H](O)[C@H](O)CO [2-DG, 2-deoxy-d-glucose]
[1]; dPHFs, WZB-117 10 uM
  extracellular levels of fibronectin, collagen-1, and PAI-1 (ECM proteins): downregulation
[2]
  SMAD3 dependent transcription: inhibited

## Cc1c(NC(=O)c2cc(C(N)=O)nc3cc(F)ccc23)c(C(F)(F)F)nn1Cc1ccc(C#N)cc1 [BAY-876]
[1]; dPHFs, WZB-117 10 uM
  extracellular levels of fibronectin, collagen-1, and PAI-1 (ECM proteins): downregulation

## O=C(/C=C/c1ccc(O)c(O)c1)OCCc1ccccc1 [CAPE, caffeic acid phenethyl ester]
[1]; TGF-B1 (3 ng/ml) treated dPHFs, CAPE 5 uM
  fibronectin, collagen-1 and PAI-1: downregulate
[3]; CAPE IP 10 mg/Kg 3 times per week for 10 weeks
  functional and histological evidence of fibrosis severity (leg contracture, trichrome): significantly reduced
[3]; [9]
  PPAR signaling in skin: upregulated
  expression of CD36 in skin: upregulated
[3]; mice with skin fibrosis, CAPE treatment
  CD36 expression in vimentin+ (mesenchymal) cells, co-immunofluorescence: increase

## Cl.N [NH4Cl]
[1]
  effect on intracellular levels of fibronectin and collagen-1: no effect
  effect on downregulation of extracellular fibronectin and collagen-1 by caffeic acid: inhibit

## O=C(Oc1cccc(F)c1OC(=O)c1cccc(O)c1)c1cccc(O)c1 [WZB-117]
[1]; TGF-B1 3 ng/ml, WZB-117 10 uM, even in dPHFs lacking PPARG and ACOX1
  extracellular fibronectin, collagen-1 and PAI-1 protein levels: reduced
[1]; dPHFs, WZB-117 10 uM
  extracellular levels of fibronectin, collagen-1, and PAI-1 (ECM proteins): downregulation
[2]
  SMAD3 dependent transcription: inhibited

## O=C(O)/C=C/c1ccc(O)c(O)c1 [caffeic acid]
[1]; [10]
  extracellular fibronectin and collagen-1: markedly downregulated
  intracellular and extracellular PAI-1: reduced
[4]; TGF-B1 (3 ng/ml) treated dPHFs
  PPAR genes expression: upregulated
  glycolysis genes expression: downregulated
[4]; TGF-B1 stimulated fibroblasts
  FN1 and COL1A1 expression: moderately decreased
  expression of PAI: significantly downregulated
[5]
  functional shift of metabolism (glycolysis vs FAO): functionally shifted metabolism from glycolysis to FAO
[2]
  SMAD3 dependent transcription: reduced
[6]
  expression of TFEB and lysosomes in dPHFs: increasing
[7]
  co-localization between DQ-collagen-1 and lysosomes: significant increase
[8]; TGF-B1 stimulated dPHFs, caffeic acid 40 uM
  CD36 gene and surface expression: restored

## CCN(CC)CCCC(C)Nc1ccnc2cc(Cl)ccc12 (stereo not shown) [chloroquine]
[1]
  effect on intracellular levels of fibronectin and collagen-1: no effect
  effect on downregulation of extracellular fibronectin and collagen-1 by caffeic acid: inhibit

## CCOC(=O)[C@@]1(CCCCCCOc2ccc(Cl)cc2)CO1 [etomoxir]
[1]; TGF-B1 + caffeic acid 40 uM + etomoxir, dPHFs
  effect on the downregulation of pro-fibrotic proteins by caffeic acid: inhibited
[1]; dPHFs, WZB-117 10 uM
  extracellular levels of fibronectin, collagen-1, and PAI-1 (ECM proteins): elevation
[2]; TGF-B1 + WZB-117 or 2-DG + etomoxir 10 uM
  rescue of WZB-117 and 2-DG inhibition of SMAD3 dependent transcription: not rescued
[2]; TGF-B1 + caffeic acid 40 uM + etomoxir 10 uM
  effect on caffeic acid's reduction of SMAD3 dependent transcription: inhibited
[8]; dPHFs, Etomoxir 10 uM for 24 hours
  CD36 surface expression: downregulated

Reference: US11819535B2, “Composition and methods for regulating extracellular matrix accumulation” (UNIVERSITY HEALTH NETWORK, priority 2018, dated 2023)
